Test results reported in ChEMBL document CHEMBL5715954, “Silencing c-Myc translation as a therapeutic strategy through targeting PI3Kδ and CK1ε in hematological malignancies” (Blood, 2017).

Experiments:
Parameters in all cases: scale not given: the % may be the effect or the level left
[1] = target: Protein-tyrosine kinase 2-beta (Homo sapiens) (UniProt Q14289); assay: Inhibition of human PYK2 assessed as enzyme activity at 1 uM using poly[Glu:Tyr] (4:1) as substrate preincubated for 20 mins followed by [gamma-33P]-ATP addition and measured after 120 mins by radiometric Hot-SpotSM Kinase assay relative to control
Protein-tyrosine kinase 2-beta (Homo sapiens), sequence (Q14289 whole entry, looked up): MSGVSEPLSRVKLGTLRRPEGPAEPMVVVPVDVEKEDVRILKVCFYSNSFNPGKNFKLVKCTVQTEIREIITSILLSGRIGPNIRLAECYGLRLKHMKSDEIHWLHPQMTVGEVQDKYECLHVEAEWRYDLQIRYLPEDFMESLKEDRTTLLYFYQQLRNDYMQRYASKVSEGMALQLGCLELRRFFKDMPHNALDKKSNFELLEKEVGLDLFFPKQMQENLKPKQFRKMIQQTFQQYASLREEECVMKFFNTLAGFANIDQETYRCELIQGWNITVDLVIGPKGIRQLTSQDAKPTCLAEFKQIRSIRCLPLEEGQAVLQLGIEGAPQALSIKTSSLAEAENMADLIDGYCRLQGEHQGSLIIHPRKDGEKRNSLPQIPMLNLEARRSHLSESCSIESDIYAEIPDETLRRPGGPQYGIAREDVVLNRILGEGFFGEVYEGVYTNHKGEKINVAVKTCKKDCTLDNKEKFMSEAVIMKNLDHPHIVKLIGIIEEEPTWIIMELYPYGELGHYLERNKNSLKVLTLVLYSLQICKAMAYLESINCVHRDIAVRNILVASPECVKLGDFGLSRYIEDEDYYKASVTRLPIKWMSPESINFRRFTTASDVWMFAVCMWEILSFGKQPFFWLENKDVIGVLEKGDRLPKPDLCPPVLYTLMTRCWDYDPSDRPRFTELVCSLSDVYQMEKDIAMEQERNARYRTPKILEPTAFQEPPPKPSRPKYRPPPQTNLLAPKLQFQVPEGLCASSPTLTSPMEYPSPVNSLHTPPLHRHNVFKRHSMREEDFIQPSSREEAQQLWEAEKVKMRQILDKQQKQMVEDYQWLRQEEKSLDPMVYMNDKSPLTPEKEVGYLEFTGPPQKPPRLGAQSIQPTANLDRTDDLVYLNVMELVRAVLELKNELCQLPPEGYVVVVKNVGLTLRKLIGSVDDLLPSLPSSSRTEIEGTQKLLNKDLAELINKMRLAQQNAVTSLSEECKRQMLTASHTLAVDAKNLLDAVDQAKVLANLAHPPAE

[2] = target: Cyclin-dependent kinase 5/CDK5 activator 1 (Homo sapiens) (UniProt Q00535+Q15078); assay: Inhibition of human CDK5/p35 assessed as enzyme activity at 1 uM using RB Protein as substrate preincubated for 20 mins followed by [gamma-33P]-ATP addition and measured after 120 mins by radiometric Hot-SpotSM Kinase assay relative to control; assay type: protein-complex assay
[3] = target: T1, Serine/threonine-protein kinase Nek11 (Homo sapiens) (UniProt Q8NG66); assay: Inhibition of human NEK11 assessed as enzyme activity at 1 uM using myelin basic protein as substrate preincubated for 20 mins followed by [gamma-33P]-ATP addition and measured after 120 mins by radiometric Hot-SpotSM Kinase assay relative to control
T1 sequence (whole entry): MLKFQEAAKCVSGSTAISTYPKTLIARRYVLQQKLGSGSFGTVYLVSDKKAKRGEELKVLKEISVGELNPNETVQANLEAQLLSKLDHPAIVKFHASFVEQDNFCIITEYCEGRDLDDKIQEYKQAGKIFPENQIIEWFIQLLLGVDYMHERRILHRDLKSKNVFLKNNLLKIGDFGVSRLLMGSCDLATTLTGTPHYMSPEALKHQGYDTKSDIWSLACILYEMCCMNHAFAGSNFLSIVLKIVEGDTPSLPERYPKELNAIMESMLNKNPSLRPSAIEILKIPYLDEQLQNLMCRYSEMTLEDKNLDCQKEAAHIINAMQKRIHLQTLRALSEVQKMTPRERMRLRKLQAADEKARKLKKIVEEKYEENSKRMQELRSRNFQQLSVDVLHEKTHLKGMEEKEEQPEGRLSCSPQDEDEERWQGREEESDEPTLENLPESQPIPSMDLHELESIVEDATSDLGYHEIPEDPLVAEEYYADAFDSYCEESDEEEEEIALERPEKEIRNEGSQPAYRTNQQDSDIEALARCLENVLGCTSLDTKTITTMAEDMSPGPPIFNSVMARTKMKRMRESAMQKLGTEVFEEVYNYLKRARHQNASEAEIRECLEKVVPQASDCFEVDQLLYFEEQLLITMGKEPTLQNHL

[4] = target: SRSF protein kinase 3 (Homo sapiens) (UniProt Q9UPE1); assay: Inhibition of human MSSK1 assessed as enzyme activity at 1 uM using GRSRSRSRSR as substrate preincubated for 20 mins followed by [gamma-33P]-ATP addition and measured after 120 mins by radiometric Hot-SpotSM Kinase assay relative to control
SRSF protein kinase 3 (Homo sapiens), sequence (Q9UPE1 whole entry): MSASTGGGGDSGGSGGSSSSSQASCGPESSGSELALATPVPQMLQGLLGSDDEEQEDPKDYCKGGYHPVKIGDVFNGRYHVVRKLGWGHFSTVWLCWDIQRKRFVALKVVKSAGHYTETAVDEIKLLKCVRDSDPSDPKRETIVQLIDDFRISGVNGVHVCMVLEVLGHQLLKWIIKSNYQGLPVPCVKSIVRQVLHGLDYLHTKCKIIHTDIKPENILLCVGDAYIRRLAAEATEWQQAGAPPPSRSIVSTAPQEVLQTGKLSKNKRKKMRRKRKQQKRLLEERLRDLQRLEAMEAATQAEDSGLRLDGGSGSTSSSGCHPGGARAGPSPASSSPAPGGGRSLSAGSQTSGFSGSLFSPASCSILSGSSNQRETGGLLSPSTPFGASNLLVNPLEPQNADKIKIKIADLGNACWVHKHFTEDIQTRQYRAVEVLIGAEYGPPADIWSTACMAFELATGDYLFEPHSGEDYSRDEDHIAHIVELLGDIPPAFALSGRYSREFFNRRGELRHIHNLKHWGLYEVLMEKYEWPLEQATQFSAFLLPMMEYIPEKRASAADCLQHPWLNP

[5] = target: T2, Myotonin-protein kinase (Homo sapiens) (UniProt Q09013); assay: Inhibition of human DMPK assessed as enzyme activity at 1 uM using KKRNRRLSVA as substrate preincubated for 20 mins followed by [gamma-33P]-ATP addition and measured after 120 mins by radiometric Hot-SpotSM Kinase assay relative to control
T2 sequence (whole entry): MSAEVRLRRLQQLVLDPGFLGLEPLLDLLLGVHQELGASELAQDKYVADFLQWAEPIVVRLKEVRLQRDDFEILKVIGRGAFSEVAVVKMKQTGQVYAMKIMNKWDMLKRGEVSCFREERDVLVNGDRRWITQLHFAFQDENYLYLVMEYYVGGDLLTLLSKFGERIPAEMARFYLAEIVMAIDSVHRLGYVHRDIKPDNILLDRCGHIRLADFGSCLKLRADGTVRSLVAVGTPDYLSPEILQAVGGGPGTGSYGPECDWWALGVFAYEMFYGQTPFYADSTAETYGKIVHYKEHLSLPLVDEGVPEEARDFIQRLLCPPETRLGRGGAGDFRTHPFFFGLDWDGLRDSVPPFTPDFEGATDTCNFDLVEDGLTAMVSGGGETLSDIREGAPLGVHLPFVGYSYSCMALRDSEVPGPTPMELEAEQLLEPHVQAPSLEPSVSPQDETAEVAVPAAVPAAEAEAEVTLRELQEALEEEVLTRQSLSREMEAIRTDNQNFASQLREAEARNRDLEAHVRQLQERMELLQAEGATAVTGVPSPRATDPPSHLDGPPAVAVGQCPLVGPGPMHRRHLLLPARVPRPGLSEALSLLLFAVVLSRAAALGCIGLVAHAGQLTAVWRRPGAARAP

[6] = target: Serine/threonine-protein kinase WNK3 (Homo sapiens) (UniProt Q9BYP7); assay: Inhibition of human WNK3 assessed as enzyme activity at 1 uM using myelin basic protein as substrate preincubated for 20 mins followed by [gamma-33P]-ATP addition and measured after 120 mins by radiometric Hot-SpotSM Kinase assay relative to control
[7] = target: CDK17/Cyclin-Y (Homo sapiens) (UniProt Q00537+Q8ND76); assay: Inhibition of human CDK17/cyclin Y assessed as enzyme activity at 1 uM using myelin basic protein as substrate preincubated for 20 mins followed by [gamma-33P]-ATP addition and measured after 120 mins by radiometric Hot-SpotSM Kinase assay relative to control; assay type: protein-complex assay
CDK17/Cyclin-Y (Homo sapiens), sequence (Q00537 whole entry): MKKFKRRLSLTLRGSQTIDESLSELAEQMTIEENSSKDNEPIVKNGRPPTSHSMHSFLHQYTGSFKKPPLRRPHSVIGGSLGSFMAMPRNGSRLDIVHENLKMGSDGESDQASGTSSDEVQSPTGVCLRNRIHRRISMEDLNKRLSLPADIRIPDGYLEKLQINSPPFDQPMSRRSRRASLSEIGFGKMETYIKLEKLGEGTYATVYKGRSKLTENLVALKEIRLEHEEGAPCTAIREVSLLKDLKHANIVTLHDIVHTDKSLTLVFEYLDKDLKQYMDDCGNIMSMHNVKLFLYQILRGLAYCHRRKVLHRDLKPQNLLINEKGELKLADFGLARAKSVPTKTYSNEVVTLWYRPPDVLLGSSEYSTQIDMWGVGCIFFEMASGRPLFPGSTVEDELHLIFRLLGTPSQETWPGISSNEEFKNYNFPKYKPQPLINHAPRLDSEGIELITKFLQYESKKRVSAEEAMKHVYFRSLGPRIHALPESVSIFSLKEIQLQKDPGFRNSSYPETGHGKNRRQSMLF
CDK17/Cyclin-Y (Homo sapiens), sequence (Q8ND76 2-341 partner limits assumed): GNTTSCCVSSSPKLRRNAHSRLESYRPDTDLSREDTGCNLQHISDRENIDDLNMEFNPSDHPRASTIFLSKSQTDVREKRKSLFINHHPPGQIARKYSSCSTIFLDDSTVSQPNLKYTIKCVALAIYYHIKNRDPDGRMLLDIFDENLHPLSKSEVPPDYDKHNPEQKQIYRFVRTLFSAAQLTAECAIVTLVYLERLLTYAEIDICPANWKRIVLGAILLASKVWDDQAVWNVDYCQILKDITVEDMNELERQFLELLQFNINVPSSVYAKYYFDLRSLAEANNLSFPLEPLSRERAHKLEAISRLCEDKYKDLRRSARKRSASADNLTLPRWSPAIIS

[8] = target: Platelet-derived growth factor receptor alpha (Homo sapiens) (UniProt P16234); assay: Inhibition of human PDGFRa assessed as enzyme activity at 1 uM using poly[Glu:Tyr] (4:1) as substrate preincubated for 20 mins followed by [gamma-33P]-ATP addition and measured after 120 mins by radiometric Hot-SpotSM Kinase assay relative to control
Platelet-derived growth factor receptor alpha (Homo sapiens), sequence (P16234 whole entry): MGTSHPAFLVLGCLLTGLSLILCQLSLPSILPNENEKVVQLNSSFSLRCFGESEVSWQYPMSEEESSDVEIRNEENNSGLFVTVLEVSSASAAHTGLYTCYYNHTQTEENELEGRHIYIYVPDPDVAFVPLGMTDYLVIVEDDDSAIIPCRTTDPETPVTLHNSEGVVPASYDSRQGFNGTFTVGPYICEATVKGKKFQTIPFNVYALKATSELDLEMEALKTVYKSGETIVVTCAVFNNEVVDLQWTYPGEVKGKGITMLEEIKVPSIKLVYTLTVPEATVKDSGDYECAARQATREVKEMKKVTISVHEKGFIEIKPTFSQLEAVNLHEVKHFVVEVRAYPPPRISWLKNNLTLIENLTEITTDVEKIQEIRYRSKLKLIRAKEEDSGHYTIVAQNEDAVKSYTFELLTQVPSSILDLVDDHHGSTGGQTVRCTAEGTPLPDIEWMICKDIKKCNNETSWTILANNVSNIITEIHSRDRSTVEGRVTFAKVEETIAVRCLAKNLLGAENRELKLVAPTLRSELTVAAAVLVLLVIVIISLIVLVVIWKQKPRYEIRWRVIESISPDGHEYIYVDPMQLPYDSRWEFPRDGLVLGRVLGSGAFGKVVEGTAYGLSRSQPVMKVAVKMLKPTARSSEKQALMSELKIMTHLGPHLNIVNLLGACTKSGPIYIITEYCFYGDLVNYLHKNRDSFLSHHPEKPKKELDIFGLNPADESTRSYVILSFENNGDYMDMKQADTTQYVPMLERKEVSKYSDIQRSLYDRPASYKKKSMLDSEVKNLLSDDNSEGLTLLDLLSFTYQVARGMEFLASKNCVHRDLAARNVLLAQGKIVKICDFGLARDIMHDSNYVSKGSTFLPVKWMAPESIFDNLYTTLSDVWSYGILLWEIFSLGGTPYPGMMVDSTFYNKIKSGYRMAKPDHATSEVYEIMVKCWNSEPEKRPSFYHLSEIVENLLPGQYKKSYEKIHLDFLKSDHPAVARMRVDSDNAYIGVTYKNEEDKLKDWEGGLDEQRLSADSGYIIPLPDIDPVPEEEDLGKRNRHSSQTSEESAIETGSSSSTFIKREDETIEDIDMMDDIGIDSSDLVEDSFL

[9] = target: Serine/threonine-protein kinase PLK3 (Homo sapiens) (UniProt Q9H4B4); assay: Inhibition of human PLK3 assessed as enzyme activity at 1 uM using casein as substrate preincubated for 20 mins followed by [gamma-33P]-ATP addition and measured after 120 mins by radiometric Hot-SpotSM Kinase assay relative to control
[10] = target: Mitogen-activated protein kinase 7 (Homo sapiens) (UniProt Q13164); assay: Inhibition of human ERK5 assessed as enzyme activity at 1 uM using myelin basic protein as substrate preincubated for 20 mins followed by [gamma-33P]-ATP addition and measured after 120 mins by radiometric Hot-SpotSM Kinase assay relative to control
Mitogen-activated protein kinase 7 (Homo sapiens), sequence (Q13164 2-816 limits assumed): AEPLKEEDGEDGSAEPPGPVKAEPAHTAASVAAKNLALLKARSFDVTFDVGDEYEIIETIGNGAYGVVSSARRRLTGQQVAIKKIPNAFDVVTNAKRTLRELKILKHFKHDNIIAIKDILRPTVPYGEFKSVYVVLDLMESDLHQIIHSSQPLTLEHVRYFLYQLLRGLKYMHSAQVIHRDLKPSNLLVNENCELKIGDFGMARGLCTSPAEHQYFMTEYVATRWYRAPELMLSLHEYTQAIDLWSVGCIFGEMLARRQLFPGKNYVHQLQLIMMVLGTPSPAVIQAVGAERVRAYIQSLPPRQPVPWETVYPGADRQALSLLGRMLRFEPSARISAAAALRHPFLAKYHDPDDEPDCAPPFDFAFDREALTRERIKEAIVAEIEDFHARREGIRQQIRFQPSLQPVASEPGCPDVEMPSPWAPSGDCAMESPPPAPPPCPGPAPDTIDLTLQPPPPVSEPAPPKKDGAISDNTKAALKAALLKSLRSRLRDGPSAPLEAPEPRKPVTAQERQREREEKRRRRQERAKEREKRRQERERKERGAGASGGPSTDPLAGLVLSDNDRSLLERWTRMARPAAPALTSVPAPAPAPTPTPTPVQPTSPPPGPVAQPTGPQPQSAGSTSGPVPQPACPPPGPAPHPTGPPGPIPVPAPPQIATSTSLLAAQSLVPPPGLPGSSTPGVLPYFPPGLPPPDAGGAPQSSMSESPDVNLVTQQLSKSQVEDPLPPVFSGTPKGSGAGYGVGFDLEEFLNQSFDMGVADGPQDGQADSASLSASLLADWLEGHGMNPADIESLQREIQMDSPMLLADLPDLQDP

[11] = target: Serine/threonine-protein kinase 24 (Homo sapiens) (UniProt Q9Y6E0); assay: Inhibition of human MST3 assessed as enzyme activity at 1 uM using myelin basic protein as substrate preincubated for 20 mins followed by [gamma-33P]-ATP addition and measured after 120 mins by radiometric Hot-SpotSM Kinase assay relative to control
Serine/threonine-protein kinase 24 (Homo sapiens), sequence (Q9Y6E0 whole entry, looked up): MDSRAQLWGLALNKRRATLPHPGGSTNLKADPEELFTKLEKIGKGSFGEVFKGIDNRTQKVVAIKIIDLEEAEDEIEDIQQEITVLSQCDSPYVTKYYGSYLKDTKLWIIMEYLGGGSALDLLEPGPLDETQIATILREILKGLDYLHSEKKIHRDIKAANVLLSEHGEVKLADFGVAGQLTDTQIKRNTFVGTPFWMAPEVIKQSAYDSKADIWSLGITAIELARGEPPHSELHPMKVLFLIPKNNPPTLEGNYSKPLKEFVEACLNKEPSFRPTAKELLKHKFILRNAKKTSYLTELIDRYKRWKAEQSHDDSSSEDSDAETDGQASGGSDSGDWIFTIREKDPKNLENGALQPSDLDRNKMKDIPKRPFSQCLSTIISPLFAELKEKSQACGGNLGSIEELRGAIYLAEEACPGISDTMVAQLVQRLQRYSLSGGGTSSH

[12] = target: RAC-gamma serine/threonine-protein kinase (Homo sapiens) (UniProt Q9Y243); assay: Inhibition of human AKT3 assessed as enzyme activity at 1 uM using KGSGSGRPRTSSFAEG as substrate preincubated for 20 mins followed by [gamma-33P]-ATP addition and measured after 120 mins by radiometric Hot-SpotSM Kinase assay relative to control
[13] = target: PAS domain-containing serine/threonine-protein kinase (Homo sapiens) (UniProt Q96RG2); assay: Inhibition of human PASK assessed as enzyme activity at 1 uM using KKLNRTLSFAEPG as substrate preincubated for 20 mins followed by [gamma-33P]-ATP addition and measured after 120 mins by radiometric Hot-SpotSM Kinase assay relative to control

SMILES | Activity [1] [%] | Activity [2] [%] | Activity [3] [%] | Activity [4] [%] | Activity [5] [%] | Activity [6] [%] | Activity [7] [%] | Activity [8] [%] | Activity [9] [%] | Activity [10] [%] | Activity [11] [%] | Activity [12] [%] | Activity [13] [%]
CC[C@H](Nc1ncnc2[nH]cnc12)c1nc2cccc(F)c2c(=O)n1-c1ccccc1 | 101 | 97.4 | 84.5 | 101 | 104 | 86.4 | 96.5 | 93.8 | 98.4 | 90.6 | 88.2 | 102 | 99.6
C[C@H](Nc1ncnc2nc[nH]c12)c1cc2cccc(Cl)c2c(=O)n1-c1ccccc1 | 99.5 | 97.1 | 90.1 | 102 | 106 | 86.8 | 97.2 | 90.1 | 95.1 | 92.9 | 87.3 | 99.8 | 95.3
CC(C)Oc1ccc(-c2nn([C@@H](C)c3oc4ccc(F)cc4c(=O)c3-c3cccc(F)c3)c3ncnc(N)c23)cc1F [UMBRALISIB] | 102 | 91.7 | 84.8 | 107 | 100 | 82.7 | 100 | 100 | 96.7 | 103 | 81.6 | 100 | 98.7
